Experimental data published in ChEMBL document CHEMBL1201862, “PubChem BioAssay data set” (2004).
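Values below derive from 48-hour exposures of cells grown in 96-well plates, with endpoints linearly interpolated between the two concentrations bracketing the appropriate inhibition level. GI50 marks 50% less growth.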 Active and inactive are the calls of the source. No stated cut-off is given here; in the data, active = GI50 up to about 1.1 µM and inactive = higher.

Columns and labels:
Experiment in all cases: NCI-60 cell line screen, 48 h
[1] = tested on: KM12
[2] = tested on: U-251
[3] = tested on: CCRF-CEM
[4] = tested on: UO-31
[5] = tested on: M19-MEL
[6] = tested on: HL-60
[7] = tested on: SK-OV-3
[8] = tested on: ACHN
[9] = tested on: OVCAR-5
[10] = tested on: SF-539
[11] = tested on: RXF 393
[12] = tested on: K562
[13] = tested on: TK-10
[14] = tested on: LXFL 529
[15] = tested on: OVCAR-8
[16] = tested on: SF-268
[17] = tested on: NCI-H460
[18] = tested on: EKVX
[19] = tested on: DLD-1
[20] = tested on: SW-620
[21] = tested on: SNB-75
[22] = tested on: NCI-H226
[23] = tested on: CAKI-1
[24] = tested on: SN12C
[25] = tested on: A549
[26] = tested on: NCI-H23
[27] = tested on: HCC 2998
[28] = tested on: SF-295
[29] = tested on: Malme-3M
[30] = tested on: KM-20L2
[31] = tested on: LOX IMVI
[32] = tested on: SNB-78
[33] = tested on: NCI-H522
[34] = tested on: HOP-92
[35] = tested on: SK-MEL-5
[36] = tested on: OVCAR-4
[37] = tested on: SK-MEL-28
[38] = tested on: SK-MEL-2
[39] = tested on: COLO 205
[40] = tested on: HOP-62
[41] = tested on: UACC-257
[42] = tested on: MOLT-4
[43] = tested on: RPMI-8226
[44] = tested on: HT-29
[45] = tested on: DMS-114
[46] = tested on: IGROV-1
[47] = tested on: M14
[48] = tested on: A498
[49] = tested on: SNB-19
[50] = tested on: 786-0
[51] = tested on: RXF 631
[52] = tested on: OVCAR-3
[53] = tested on: BT-549
[54] = tested on: Hs-578T
[55] = tested on: MDA-N
[56] = tested on: MCF7
[57] = tested on: XF498
[58] = tested on: HOP-18
[59] = tested on: MDA-MB-231
[60] = tested on: PC-3
[61] = tested on: MDA-MB-435
[62] = tested on: HCT-116
[63] = tested on: SR
[64] = tested on: UACC-62
[65] = tested on: NCI/ADR-RES
[66] = tested on: T47D
[67] = tested on: HCT-15
[68] = tested on: DU-145
[69] = tested on: DMS-273

For `CCc1ccccc1NC(=O)C1=C(C)NC(C)=C(C(=O)Nc2ccccc2CC)C1c1cccc([N+](=O)[O-])c1`, the GI50 [1] was 32.8 µM (inactive), the GI50 [2] was 39.4 µM (inactive) and the GI50 [3] was 12.1 µM (inactive). For the same compound, the GI50 [4] was 11.5 µM (inactive), the GI50 [5] was 44.7 µM (inactive) and the GI50 [6] was 23.2 µM (inactive). The GI50 [7] was > 100 µM (inactive), the GI50 [8] was 29.5 µM (inactive) and the GI50 [9] was 41.5 µM (inactive). The GI50 [10] was 43.9 µM (inactive), the GI50 [11] was 10.5 µM (inactive) and the GI50 [12] was 29.4 µM (inactive). For the same compound, the GI50 [13] was 41.6 µM (inactive), the GI50 [14] was 26.2 µM (inactive) and the GI50 [15] was 44.7 µM (inactive). For the same compound, the GI50 [16] was 43 µM (inactive), the GI50 [17] was 27.7 µM (inactive) and the GI50 [18] was 34 µM (inactive). The GI50 [19] was 19.9 µM (inactive), the GI50 [20] was 47.5 µM (inactive) and the GI50 [21] was 32.1 µM (inactive). For the same compound, the GI50 [22] was 29.8 µM (inactive), the GI50 [23] was 43.8 µM (inactive) and the GI50 [24] was 70.6 µM (inactive). For the same compound, the GI50 [25] was 21.5 µM (inactive), the GI50 [26] was 36.6 µM (inactive) and the GI50 [27] was 11.7 µM (inactive). The GI50 [28] was 47.4 µM (inactive), the GI50 [29] was 35.9 µM (inactive) and the GI50 [30] was 31 µM (inactive). For the same compound, the GI50 [31] was 87.9 µM (inactive), the GI50 [32] was 43.5 µM (inactive) and the GI50 [33] was 22.2 µM (inactive). The GI50 [34] was 13.2 µM (inactive), the GI50 [35] was 27.7 µM (inactive) and the GI50 [36] was 7.85 µM (inactive). For the same compound, the GI50 [37] was 40.9 µM (inactive), the GI50 [38] was 19.5 µM (inactive) and the GI50 [39] was 34.7 µM (inactive). For the same compound, the GI50 [40] was 38.3 µM (inactive), the GI50 [41] was 33.2 µM (inactive) and the GI50 [42] was 7.45 µM (inactive). The GI50 [43] was 11.7 µM (inactive), the GI50 [44] was 37.1 µM (inactive) and the GI50 [45] was 30.1 µM (inactive). The GI50 [46] was 21.8 µM (inactive), the GI50 [47] was 29 µM (inactive) and the GI50 [48] was 24.2 µM (inactive). The GI50 [49] was 59.4 µM (inactive), the GI50 [50] was 43 µM (inactive) and the GI50 [51] was 46.3 µM (inactive). The GI50 [52] was 52 µM (inactive).
With `C=C1C(=O)OC2C(C)C3C=CC(=O)[C@@]3(C)C(OC(=O)/C(C)=C/C)C1[C@@H]2OC(C)=O` (stereo not given in full) the GI50 [53] was 280 nM (active), the GI50 [54] was 308 nM (active) and the GI50 [1] was 1.46 µM (inactive). The GI50 [2] was 1.15 µM (inactive), the GI50 [3] was 0.22 µM (active) and the GI50 [4] was 1.21 µM (inactive). The GI50 [5] was 0.547 µM (active), the GI50 [6] was 0.327 µM (active) and the GI50 [7] was 1.59 µM (inactive). The GI50 [8] was 0.589 µM (active), the GI50 [9] was 1.88 µM (inactive) and the GI50 [10] was 0.333 µM (active). For the same compound, the GI50 [55] was 252 nM (active), the GI50 [56] was 458 nM (active) and the GI50 [11] was 0.215 µM (active). For the same compound, the GI50 [12] was 0.374 µM (active), the GI50 [13] was 0.452 µM (active) and the GI50 [57] was 1.25 µM (inactive). For the same compound, the GI50 [14] was 0.359 µM (active), the GI50 [58] was 1.79 µM (inactive) and the GI50 [15] was 0.24 µM (active). The GI50 [16] was 0.673 µM (active), the GI50 [17] was 0.3 µM (active) and the GI50 [18] was 0.551 µM (active). For the same compound, the GI50 [19] was 0.5 µM (active), the GI50 [20] was 0.257 µM (active) and the GI50 [21] was 1.1 µM (active). The GI50 [22] was 1.73 µM (inactive), the GI50 [23] was 0.553 µM (active) and the GI50 [59] was 259 nM (active). For the same compound, the GI50 [24] was 0.468 µM (active), the GI50 [60] was 522 nM (active) and the GI50 [25] was 1.67 µM (inactive). For the same compound, the GI50 [26] was 0.467 µM (active), the GI50 [27] was 1.75 µM (inactive) and the GI50 [28] was 1.43 µM (inactive). The GI50 [29] was 0.221 µM (active), the GI50 [30] was 1.51 µM (inactive) and the GI50 [31] was 0.243 µM (active). For the same compound, the GI50 [61] was 267 nM (active), the GI50 [32] was 0.396 µM (active) and the GI50 [33] was 0.131 µM (active). For the same compound, the GI50 [34] was 0.551 µM (active), the GI50 [35] was 1.46 µM (inactive) and the GI50 [36] was 0.822 µM (active). The GI50 [37] was 0.593 µM (active), the GI50 [38] was 0.278 µM (active) and the GI50 [62] was 319 nM (active). The GI50 [39] was 0.333 µM (active), the GI50 [40] was 1.25 µM (inactive) and the GI50 [63] was 168 nM (active). The GI50 [41] was 0.641 µM (active), the GI50 [42] was 0.334 µM (active) and the GI50 [43] was 0.486 µM (active). The GI50 [44] was 0.486 µM (active), the GI50 [45] was 0.861 µM (active) and the GI50 [46] was 0.78 µM (active). The GI50 [64] was 344 nM (active), the GI50 [65] was 237 nM (active) and the GI50 [47] was 0.673 µM (active). For the same compound, the GI50 [48] was 1.49 µM (inactive), the GI50 [49] was 1.89 µM (inactive) and the GI50 [66] was 336 nM (active). The GI50 [50] was 0.231 µM (active), the GI50 [67] was 247 nM and the GI50 [52] was 0.26 µM (active). The GI50 [68] was 1.36 µM (inactive) and the GI50 [69] was 541 nM (active).
